From paper PMC11990524, “Design and Synthesis of Novel 6-(Substituted phenyl)-[1,3]dioxolo[4′,5′:4,5]benzo[1,2-d]thiazole Compounds as Tyrosinase Inhibitors: In Vitro and In Vivo Insights” (Molecules, 2025)

What was measured:
B16F10 cells = assay: Cellular melanin content assay using B16F10 cells; assay type: cell-based, murine
Experimental: After 72 h of incubation, the melanin content was evaluated by measuring the optical density at 405 nm.
The plate was incubated in a CO2 incubator for 1 h. Each well was treated with stimulators (α-MSH and IBMX; 1 μM and 200 μM, respectively) and incubated in a CO2 incubator for 72 h. The incubated cells were rinsed twice with PBS (pH 7.4). 1N–NaOH solution (100 μL) was added to each well and warmed at 60 °C for 1 h. The lysates were transferred to each well of a 96-well plate. The optical density was measured at 405 nm.

B16F10 cell tyrosinase = target: T1, B16F10 cell tyrosinase (Mus musculus, UniProt P11344); assay: In situ cellular tyrosinase activity assay using B16F10 cells; assay type: cell-based, murine
T1 construct: endogenous in cells; host or cells: B16F10 murine cells, stimulated with α-MSH and IBMX
T1 sequence (P11344 19-533): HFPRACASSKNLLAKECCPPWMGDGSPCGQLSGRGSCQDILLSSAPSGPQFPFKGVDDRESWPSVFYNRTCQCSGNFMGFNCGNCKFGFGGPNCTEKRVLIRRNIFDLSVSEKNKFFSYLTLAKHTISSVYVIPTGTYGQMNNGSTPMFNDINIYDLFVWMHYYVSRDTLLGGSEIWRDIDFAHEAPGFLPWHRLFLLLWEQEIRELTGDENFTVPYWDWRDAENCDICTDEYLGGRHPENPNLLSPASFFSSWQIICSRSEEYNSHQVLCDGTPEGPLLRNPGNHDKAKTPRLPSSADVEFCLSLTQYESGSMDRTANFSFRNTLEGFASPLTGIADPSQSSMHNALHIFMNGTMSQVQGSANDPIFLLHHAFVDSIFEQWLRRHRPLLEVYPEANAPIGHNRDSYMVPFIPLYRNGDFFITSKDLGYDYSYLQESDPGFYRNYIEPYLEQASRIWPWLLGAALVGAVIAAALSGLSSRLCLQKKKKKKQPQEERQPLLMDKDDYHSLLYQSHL
Experimental: After 72 h of incubation, the cells were treated with an excessive amount of L-dopa for 2 h, and then the melanin-stained cells were photographed, and the pigmented areas of the cells were determined using an ATTO CS Analyzer (ATTO, Tokyo, Japan).
B16F10 (3 × 10^3 cells/well) cells in a 24-well plate were incubated for 24 h in a 5% CO2 incubator maintained at 37 °C. […] Stimulators (α-MSH and IBMX; 1 μM and 200 μM, respectively) were exposed to cells 1 h after treatment with the test sample, and the cells were incubated for 72 h in a 5% CO2 incubator. The cells were fixed for 40 min using paraformaldehyde solution (4%) (Sigma-Aldrich, St. Louis, MO, USA), washed with PBS (pH 7.4), and permeabilized for 2 min using Triton X-100 (0.1%). After washing twice with PBS, each well was exposed to L-dopa solution (500 μL; 2 mM). After incubation for 2 h, images of the cells stained with excess melanin were obtained using a camera connected to a microscope (Motic, Hong Kong).

[1] = ABTS radical scavenging assay; details: 100 μM
Experimental: The ABTS^+ radical solution was obtained by mixing ABTS and potassium persulfate, an oxidizing reagent, and test samples (1–13 and Trolox [positive control]; final concentration: 100 μM) were added to determine their ABTS^+ radical scavenging ability by measuring the optical density at 732 nm.
To prepare ABTS^•+ stock solution, equal amounts of ABTS (14 mM aqueous solution) and K2S2O8 (4.9 mM aqueous solution) were mixed and stored in the dark at 18 °C for 15 h. The prepared ABTS^•+ solution was diluted in ethanol to adjust the absorbance to 0.7 ± 0.01 at 732 nm. The test samples (Trolox [positive control] and compounds 1–13) were dissolved in a cosolvent of ethanol and DMSO (10:1 [v/v]). The adjusted ABTS^•+ solution (90 μL) and test sample (10 μL) were added to each well of a 96-well plate, and the plate was stored in a dark place at 18 °C for 2 min. The optical density was measured at 732 nm every min for 10 min. The test sample solutions were tested at a final concentration of 100 μM. The percentage of radical scavenging activity was calculated as follows: % Radical scavenging activity = 100 × [(Absc − Abst)/Absc], where Abst and Absc are optical densities of the test sample and control, respectively.

Oc1ccc(-c2nc3cc4c(cc3s2)OCO4)c(O)c1 [Compound 9, 4-([1,3]Dioxolo[4′,5′:4,5]benzo[1,2-d]thiazol-6-yl)benzene-1,3-diol]
melanin content (B16F10 cells; 1, 2, and 5 μM, IBMX 200 μM plus α-MSH 1 μM, 72 h): significantly reduced the stimulator-induced melanin contents
melanin production inhibition compared with kojic acid (B16F10 cells; same concentration (5 μM)): inhibited melanin production more potently than kojic acid
melanin production-inhibitory potency in situ, comparison (B16F10 cell tyrosinase; 5 μM): greater than that of 5
number of cells strongly stained with melanin (in situ tyrosinase) (B16F10 cell tyrosinase; 1, 2, and 5 μM, IBMX plus α-MSH, 72 h, L-dopa 2 h): evidently reduced the number of cells strongly stained with melanin
ABTS^+ radical scavenging activity (inhibition rate) [1]: 96%
